From ChEMBL document CHEMBL1932944, “Hoiamide D, a marine cyanobacteria-derived inhibitor of p53/MDM2 interaction” (Bioorg Med Chem Lett, 2012)

How the values were obtained:
[1] = Inhibition of p53/HDM2 interaction
[2] = Inhibition of human biotin-labelled p53/GST-tagged Hdm2 interaction preincubated for 20 mins before GST-tagged Hdm2 protein addition measured after 1 hr by HTR-FRET based competition assay
NCI-H460 = assay: Cytotoxicity against human H460 cells at 40 uM relative to control; format: functional

IC50 [1]	Compound	EC50 [2]	Activity (NCI-H460)
4.6 µM	CCCCCCCC[C@H]1NC(=O)[C@@H](CC(C)C)NC(=O)[C@H]([C@@H](C)O)NC(=O)[C@@H](CC(C)C)NC(=O)[C@@H](CC(N)=O)NC(=O)[C@H](CC(N)=O)NC(=O)[C@H](C)NC(=O)[C@H]([C@@H](C)O)NC(=O)[C@H](CCCN2C=C3C(=O)[C@@](C)(OC(=O)CCC)C(=O)C(Cl)=C3[C@@H](O)[C@]23CCCO3)NC1=O (relative stereo)	–	–
230 µM	C=C(C(=O)O)C(CCCCCC)C(=O)O (centres undefined) [HEXYLITACONIC ACID]	–	–
–	CCC[C@@H](C)[C@H](O)[C@H](C)[C@@H](O)[C@@H](C)[C@H](Cc1nc(C2=N[C@@](C)(C3=N[C@@](C)(C(=O)N[C@H]([C@@H](O)[C@@H](C)C(=O)O)[C@@H](C)CC)CS3)CS2)cs1)OC [HOIAMIDE D]	4.5 µM	16%
